Source: US4740233A, “Substituted 1,2,4-triazolo[1,5-a]-pyrimidine-2-sulfonamides and compositions and methods of controlling undesired vegetation and suppressing the nitrification of ammonium nitrogen in soil” (The Dow Chemical Company, priority 1986, dated 1988)

What was measured:
jimsonweed [1] = experiment: Postemergent control of plant species; type: in vivo, Datura stramonium; settings: Datura stramonium, post-emergence, 336 h, read-out: percent postemergent control
Summary of the method: (§1)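 Compounds in acetone mixed 1:1 with water containing 0.1% surfactant, sprayed postemergence on greenhouse plants at the 2-4 leaf stage. Growth reduction versus untreated plants of the same species scored after about two weeks.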

rice [2] = experiment: Postemergent control of plant species; type: in vivo, Oryza sativa; settings: Oryza sativa, post-emergence, 336 h, read-out: percent postemergent control
Summary of the method: as §1

yellow foxtail [3] = experiment: Postemergent control of plant species; type: in vivo, Setaria lutescens; settings: Setaria, post-emergence, 336 h, read-out: percent postemergent control
Summary of the method: as §1

velvetleaf [4] = experiment: Postemergent control of plant species; type: in vivo, Abutilon theophrasti; settings: Abutilon theophrasti, post-emergence, 336 h, read-out: percent postemergent control
Summary of the method: as §1

pigweed = experiment: Postemergent control of plant species; type: in vivo, Amaranthus spp.; settings: Amaranthus retroflexus, post-emergence, 336 h, read-out: percent postemergent control
Summary of the method: as §1

cocklebur = experiment: Postemergent control of plant species; type: in vivo, Xanthium spp.; settings: Xanthium strumarium, post-emergence, 336 h, read-out: percent postemergent control
Summary of the method: as §1

rape [5] = experiment: Postemergent control of plant species; type: in vivo, Brassica napus; settings: Brassica napus, post-emergence, 336 h, read-out: percent postemergent control
Summary of the method: as §1

barnyardgrass [6] = experiment: Postemergent control of plant species; type: in vivo, Echinochloa crusgalli; settings: Echinochloa crus-galli, post-emergence, 336 h, read-out: percent postemergent control
Summary of the method: as §1

annual morning glory [7] = experiment: Postemergent control of plant species; type: in vivo, Ipomoea spp.; settings: Ipomoea, post-emergence, 336 h, read-out: percent postemergent control
Summary of the method: as §1

cotton [8] = experiment: Postemergent control of plant species; type: in vivo, Gossypium spp.; settings: Gossypium hirsutum, post-emergence, 336 h, read-out: percent postemergent control
Summary of the method: as §1

crabgrass = experiment: Postemergent control of plant species; type: in vivo, Digitaria spp.; settings: Digitaria sanguinalis, post-emergence, 336 h, read-out: percent postemergent control
Summary of the method: as §1

[9] = tested on: nitrification of ammonium nitrogen; experiment: Suppression of nitrification of ammonium nitrogen in soil; settings: 27° C.
Summary of the method: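 Soil (20 g) moistened to its 1/3 bar tension value, mixed with test chemical and incubated sealed for two weeks at 27° C. Nitrate extracted with ammonium sulfate solution and measured by nitrate-specific ion electrode; value given as % NH4-N remaining.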

wild oats [10] = experiment: Postemergent control of plant species; type: in vivo, Avena fatua; settings: Avena fatua, post-emergence, 336 h, read-out: percent postemergent control
Summary of the method: as §1

corn [11] = experiment: Postemergent control of plant species; type: in vivo, Zea mays; settings: Zea mays, post-emergence, 336 h, read-out: percent postemergent control
Summary of the method: as §1

soybean [12] = experiment: Postemergent control of plant species; type: in vivo, Glycine max.; settings: Glycine max, post-emergence, 336 h, read-out: percent postemergent control
Summary of the method: as §1

johnson grass [13] = experiment: Postemergent control of plant species; type: in vivo, Sorghum halepense; settings: Sorghum halepense, post-emergence, 336 h, read-out: percent postemergent control
Summary of the method: as §1

sorghum [14] = experiment: Postemergent control of plant species; type: in vivo, Sorghum vulgare; settings: Sorghum, post-emergence, 336 h, read-out: percent postemergent control
Summary of the method: as §1

wheat [15] = experiment: Postemergent control of plant species; type: in vivo, Triticum aestivum; settings: Triticum aestivum, post-emergence, 336 h, read-out: percent postemergent control
Summary of the method: as §1

yellow nutsedge [16] = experiment: Postemergent control of plant species; type: in vivo, Cyperus esculentus; settings: Cyperus, post-emergence, 336 h, read-out: percent postemergent control
Summary of the method: as §1

sugar beet [17] = experiment: Postemergent control of plant species; type: in vivo, Beta saccharifera; settings: Beta vulgaris, post-emergence, 336 h, read-out: percent postemergent control
Summary of the method: as §1

barnyardgrass [18] = experiment: Preemergent control of plant species; type: in vivo, Echinochloa crusgalli; settings: Echinochloa crus-galli, pre-emergence, 336 h; 0.25 lb/acre; read-out: percent preemergent control
Summary of the method: (§2)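 Seeds sown in agricultural soil in greenhouse beds, then aqueous-emulsion compositions applied uniformly to the bed surface at listed rates. Beds kept two weeks under greenhouse growth conditions with watering. Control expressed as growth reduction versus water-treated beds of the same species.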

rice [19] = experiment: Preemergent control of plant species; type: in vivo, Oryza sativa; settings: Oryza sativa, pre-emergence, 336 h; 0.25 lb/acre; read-out: percent preemergent control
Summary of the method: as §2

annual morning glory [20] = experiment: Preemergent control of plant species; type: in vivo, Ipomoea spp.; settings: Ipomoea, pre-emergence, 336 h; 0.25 lb/acre; read-out: percent preemergent control
Summary of the method: as §2

cotton [21] = experiment: Preemergent control of plant species; type: in vivo, Gossypium spp.; settings: Gossypium hirsutum, pre-emergence, 336 h; 0.25 lb/acre; read-out: percent preemergent control
Summary of the method: as §2

sorghum [22] = experiment: Preemergent control of plant species; type: in vivo, Sorghum vulgare; settings: Sorghum, pre-emergence, 336 h; 0.25 lb/acre; read-out: percent preemergent control
Summary of the method: as §2

rape [23] = experiment: Preemergent control of plant species; type: in vivo, Brassica napus; settings: Brassica napus, pre-emergence, 336 h; 0.25 lb/acre; read-out: percent preemergent control
Summary of the method: as §2

wheat [24] = experiment: Preemergent control of plant species; type: in vivo, Triticum aestivum; settings: Triticum aestivum, pre-emergence, 336 h; 0.25 lb/acre; read-out: percent preemergent control
Summary of the method: as §2

johnson grass [25] = experiment: Preemergent control of plant species; type: in vivo, Sorghum halepense; settings: Sorghum halepense, pre-emergence, 336 h; 0.25 lb/acre; read-out: percent preemergent control
Summary of the method: as §2

wild oats [26] = experiment: Preemergent control of plant species; type: in vivo; settings: Avena fatua, pre-emergence, 336 h; 0.25 lb/acre; read-out: percent preemergent control
Summary of the method: as §2

jimsonweed [27] = experiment: Preemergent control of plant species; type: in vivo, Datura stramonium; settings: Datura stramonium, pre-emergence, 336 h; 0.25 lb/acre; read-out: percent preemergent control
Summary of the method: as §2

velvetleaf [28] = experiment: Preemergent control of plant species; type: in vivo, Abutilon theophrasti; settings: Abutilon theophrasti, pre-emergence, 336 h; 0.25 lb/acre; read-out: percent preemergent control
Summary of the method: as §2

yellow nutsedge [29] = experiment: Preemergent control of plant species; type: in vivo, Cyperus esculentus; settings: Cyperus, pre-emergence, 336 h; 0.25 lb/acre; read-out: percent preemergent control
Summary of the method: as §2

soybean [30] = experiment: Preemergent control of plant species; type: in vivo, Glycine max.; settings: Glycine max, pre-emergence, 336 h; 0.25 lb/acre; read-out: percent preemergent control
Summary of the method: as §2

corn [31] = experiment: Preemergent control of plant species; type: in vivo, Zea mays; settings: Zea mays, pre-emergence, 336 h; 0.25 lb/acre; read-out: percent preemergent control
Summary of the method: as §2

yellow foxtail [32] = experiment: Preemergent control of plant species; type: in vivo, Setaria lutescens; settings: Setaria, pre-emergence, 336 h; 0.25 lb/acre; read-out: percent preemergent control
Summary of the method: as §2

sugar beet [33] = experiment: Preemergent control of plant species; type: in vivo, Beta saccharifera; settings: Beta vulgaris, pre-emergence, 336 h; 0.25 lb/acre; read-out: percent preemergent control
Summary of the method: as §2

SMILES	pest or weed control at 500 ppm (jimsonweed [1]) [%]	plant injury at 500 ppm (rice [2]) [%]	pest or weed control at 500 ppm (yellow foxtail [3]) [%]	pest or weed control at 500 ppm (velvetleaf [4]) [%]	pest or weed control at 500 ppm (pigweed) [%]	pest or weed control at 500 ppm (cocklebur) [%]	plant injury at 500 ppm (rape [5]) [%]	pest or weed control at 500 ppm (barnyardgrass [6]) [%]	pest or weed control at 500 ppm (annual morning glory [7]) [%]	plant injury at 500 ppm (cotton [8]) [%]	pest or weed control at 500 ppm (crabgrass) [%]	% NH4-N Remaining After 2 Weeks Incubation ([9]; 1 ppm) [%]	pest or weed control at 500 ppm (wild oats [10]) [%]	plant injury at 500 ppm (corn [11]) [%]	plant injury at 500 ppm (soybean [12]) [%]	pest or weed control at 500 ppm (johnson grass [13]) [%]	plant injury at 500 ppm (sorghum [14]) [%]	plant injury at 500 ppm (wheat [15]) [%]	pest or weed control at 500 ppm (yellow nutsedge [16]) [%]	plant injury at 500 ppm (sugar beet [17]) [%]	other results
O=S(=O)(Nc1c(F)cccc1F)c1nc2ncc(Cl)cn2n1 [Compound 117, 6-chloro-N-(2,6-difluorophenyl)-1,2,4-triazolo[1,5-a]pyrimidine-2-sulfonamide]	100	0	65	100	75	100	100	0	80	90	0	41	0	0	35	75	60	0	25	100	% NH4-N Remaining After 2 Weeks Incubation ([9]; 0.06 ppm): 32%; % NH4-N Remaining After 2 Weeks Incubation ([9]; 0.25 ppm): 24%; % NH4-N Remaining After 2 Weeks Incubation ([9]; 4 ppm): 72%
Cc1ccn2nc(S(=O)(=O)Nc3c(C)nn(C)c3C(F)(F)F)nc2n1 [Compound 246]	80	70	90	70	100	90	70	50	50	80	75	–	0	0	85	75	95	0	80	100	pest or weed control at 280.212 g/ha (barnyardgrass [18]): 0%; plant injury at 280.212 g/ha (rice [19]): 20%; pest or weed control at 280.212 g/ha (annual morning glory [20]): 0%; plant injury at 280.212 g/ha (cotton [21]): 80%; plant injury at 280.212 g/ha (sorghum [22]): 95%; plant injury at 280.212 g/ha (rape [23]): 80%; plant injury at 280.212 g/ha (wheat [24]): 10%; pest or weed control at 280.212 g/ha (johnson grass [25]): 20%; pest or weed control at 280.212 g/ha (wild oats [26]): 40%; pest or weed control at 280.212 g/ha (jimsonweed [27]): 0%; pest or weed control at 280.212 g/ha (velvetleaf [28]): 30%; pest or weed control at 280.212 g/ha (yellow nutsedge [29]): 20%; plant injury at 280.212 g/ha (soybean [30]): 90%; plant injury at 280.212 g/ha (corn [31]): 20%; pest or weed control at 280.212 g/ha (yellow foxtail [32]): 20%; plant injury at 280.212 g/ha (sugar beet [33]): 90%
Cc1cc(C)n2nc(S(=O)(=O)Nc3ccc(F)cc3Cl)nc2n1 [Compound 30]	0	20	0	40	0	40	40	0	60	0	0	54	0	0	30	0	0	0	0	0	% NH4-N Remaining After 2 Weeks Incubation ([9]; 0.01 ppm): 0%; % NH4-N Remaining After 2 Weeks Incubation ([9]; 0.1 ppm): 6%; % NH4-N Remaining After 2 Weeks Incubation ([9]; 10 ppm): 81%
Cc1cc(C)n2nc(S(=O)(=O)Nc3c(C)nn(C)c3C(F)(F)F)nc2n1 [Compound 247]	20	0	0	40	70	20	70	0	0	0	0	58	0	0	70	0	0	0	0	70	% NH4-N Remaining After 2 Weeks Incubation ([9]; 0.06 ppm): 58%; % NH4-N Remaining After 2 Weeks Incubation ([9]; 0.25 ppm): 47%; % NH4-N Remaining After 2 Weeks Incubation ([9]; 4 ppm): 82%
CCOc1cnc2nc(S(=O)(=O)Nc3ccccc3C(F)(F)F)nn2c1 [Compound 201]	70	0	0	60	90	80	20	0	0	0	0	56	0	0	0	0	0	0	0	50	% NH4-N Remaining After 2 Weeks Incubation ([9]; 0.06 ppm): 0%; % NH4-N Remaining After 2 Weeks Incubation ([9]; 0.25 ppm): 11%; % NH4-N Remaining After 2 Weeks Incubation ([9]; 4 ppm): 67%
